Molecules are shown by their SMILES. Active and inactive are the calls of the source. No cut-off for these calls is given here.

Broadly, the IC50 is the concentration needed to halve the response being measured.

Assay [1] has as its system Trypanosoma brucei brucei. The assay can be described thus: Antitrypanosomal activity against Trypanosoma brucei brucei bloodstream trypomastigotes by alamar blue assay. The format is functional, organism-based. (In general: Alamar Blue is a resazurin reagent that responds to reducing activity.)
A further assay concerns J774. The assay can be described thus: Cytotoxicity against mouse J774 cells by alamar blue assay. The format is cell-based.
A short description of assay [2]: Selectivity index, ratio of IC50 for mouse J774 cells to IC50 for Trypanosoma brucei brucei bloodstream trypomastigotes. Format: functional.
For assay [3], the system named is Trypanosoma brucei rhodesiense. Nature of the assay: Antitrypanosomal activity against Trypanosoma brucei rhodesiense bloodstream trypomastigotes. The format is functional, organism-based.
Assay [4] is described as follows: Cytotoxicity against mouse leukemic cells. Format: functional, cell-based. The note with it: Leukemic tumor cell line.
A short description of assay [5]: Cytotoxicity against human lung cancer cells. Format: functional, cell-based. Conditions: Cancer cell lines.
Assay [6] in a line: Cytotoxicity against human colon cancer cells. The format is functional, cell-based. The note with it: Cancer cell lines.
Assay [7] in a line: Cytotoxicity against human leukemia cells. Format: functional, cell-based. Conditions: Leukemia cell.
Assay [8] concerns Trypanosoma cruzi. Nature of the assay: Antitrypanosomal activity against South American Trypanosoma cruzi bloodstream trypomastigotes at 21 uM. The format is functional.
Assay [9] deals with Trypanosoma cruzi. The assay can be described thus: Antitrypanosomal activity against South American Trypanosoma cruzi bloodstream trypomastigotes at 80.4 uM. Format: functional.

For the compound `C=CC(O)(CC[C@@H](C)[C@H]1CC[C@H]2[C@@H]3CC=C4C[C@@H](O)CC[C@]4(C)[C@H]3CC[C@]12C)C(C)C` (some centres undefined) [SARINGOSTEROL], the half-maximal inhibitory concentration (IC50) in assay [1] was 7.8 µM; in the assay with J774 it was greater than 233 µM. Further, the “Ratio IC50” value in [2] is greater than 30.3.
Turning to `CC[C@H](CC[C@@H](C)[C@H]1CC[C@H]2[C@@H]3CC=C4C[C@@H](O)CC[C@]4(C)[C@H]3CC[C@]12C)C(C)C` [BETA-SITOSTEROL], the IC50 (in assay [1]; with J774) was greater than 241 µM in each case.
On to `CC[C@H](/C=C/[C@@H](C)[C@H]1CC[C@H]2[C@@H]3CC=C4C[C@@H](O)CC[C@]4(C)[C@H]3CC[C@]12C)C(C)C` [STIGMASTEROL], for which the results for the IC50 (in assay [1]; in the assay with J774) were 135 µM and greater than 242 µM, respectively. Moreover, the “Ratio IC50” value in assay [2] was greater than 1.8.
Regarding `CC1(C)CC[C@]2(C)CC[C@]3(C)C(=CC[C@@H]4[C@@]5(C)CC[C@H](O)C(C)(C)[C@@H]5CC[C@]43C)[C@@H]2C1` [beta-AMYRIN], the values for the IC50 (in assay [1]; in the assay on J774) were 127 µM and greater than 234 µM, respectively. In assay [3], the result was inactive. Besides, the “Ratio IC50” value in [2] is recorded as greater than 1.8.
On to `C=C(C)[C@@H]1CC[C@]2(CO)CC[C@]3(C)[C@H](CC[C@@H]4[C@@]5(C)CC[C@H](O)C(C)(C)[C@@H]5CC[C@]43C)[C@@H]12` [BETULIN], for which the IC50 came to 8.9 µM in [1] and 67.1 µM in the assay on J774. Besides, in [2], the “Ratio IC50” value is recorded as 7.4.
For the compound `C[C@H]1[C@H](C)CC[C@]2(CO)CC[C@]3(C)C(=CC[C@@H]4[C@@]5(C)CC[C@H](O)C(C)(C)[C@@H]5CC[C@]43C)[C@H]12` [UVAOL], the results for the IC50 (in assay [1]; in the assay on J774) were 27.8 µM and 156 µM, respectively. Besides, in assay [2], the “Ratio IC50” value stood at 5.6.
On to `C[C@H]1[C@H](C)CC[C@]2(C)CC[C@]3(C)C(=CC[C@@H]4[C@@]5(C)CC[C@H](O)C(C)(C)[C@@H]5CC[C@]43C)[C@H]12`, for which the IC50 is 114 µM in assay [1] and 128 µM in the assay with J774. Also, in assay [2], the “Ratio IC50” value was determined as 1.1.
On to `C=C(C)[C@@H](CC)CC[C@@H](C)[C@H]1CC[C@H]2[C@@H]3CC=C4C[C@@H](O)CC[C@]4(C)[C@H]3CC[C@]12C` [CLEROSTEROL], for which the IC50 was 130 µM in [1] and greater than 242 µM in the assay with J774. For the same compound, the “Ratio IC50” value in assay [2] is greater than 1.9.
For the compound `COc1cc2c(c(OC)c1OC)-c1ccc(OC)c(=O)cc1[C@@H](NC(C)=O)CC2` [COLCHICINE], in the assay with J774, the IC50 was found to be 0.21 µM.
As for `Cc1ccc(C(=O)Nc2ccc(S(=O)(=O)O)c3cc(S(=O)(=O)O)cc(S(=O)(=O)O)c23)cc1NC(=O)c1cccc(NC(=O)Nc2cccc(C(=O)Nc3cc(C(=O)Nc4ccc(S(=O)(=O)O)c5cc(S(=O)(=O)O)cc(S(=O)(=O)O)c45)ccc3C)c2)c1` [SURAMIN], the IC50 in [1] amounted to 0.041 µM.
With `CC1(C)CC[C@]2(CO)CC[C@]3(C)C(=CC[C@@H]4[C@@]5(C)CC[C@H](O)C(C)(C)[C@@H]5CC[C@]43C)[C@@H]2C1` [ERYTHRODIOL], the 50% inhibitory concentration (IC50) was 12 µM in [1] and 50.3 µM with J774. Also, in assay [2], the “Ratio IC50” value is 4.2.
Consider `C=CC(CC[C@@H](C)[C@H]1CC[C@H]2[C@@H]3CC=C4C[C@@H](O)CC[C@]4(C)[C@H]3CC[C@]12C)(OO)C(C)C` (some centres undefined), for which the IC50 in assay [1] amounted to 3.2 µM; with J774, 16.4 µM; in assay [4], 0.7 µM; in assay [5], 0.7 µM; in assay [6] it was 0.7 µM; in [7], 0.7 µM. For the same compound, the “Ratio IC50” value in assay [2] worked out at 5.2.
In the case of `CC1(C)CC[C@]2(C(=O)O)CC[C@]3(C)C(=CC[C@@H]4[C@@]5(C)CC[C@H](O)C(C)(C)[C@@H]5CC[C@]43C)[C@@H]2C1` [OLEANOLIC_ACID], the IC50 in assay [1] amounted to 6.4 µM; with J774 it was 130 µM. The Activity with Trypanosoma cruzi [8] and in the assay on Trypanosoma cruzi [9] was 50% throughout. Besides, the “Ratio IC50” value in [2] was 20.6.
Regarding `C=C(C)[C@@H]1CC[C@]2(C)CC[C@]3(C)[C@H](CC[C@@H]4[C@@]5(C)CC[C@H](O)C(C)(C)[C@@H]5CC[C@]43C)[C@@H]12` [LUPEOL], the IC50 in assay [1] is 45.3 µM; with J774, greater than 234 µM. In addition, in assay [2], the “Ratio IC50” value is on record as greater than 5.2.
In the case of `C[C@H]1[C@H](C)CC[C@]2(C(=O)O)CC[C@]3(C)C(=CC[C@@H]4[C@@]5(C)CC[C@H](O)C(C)(C)[C@@H]5CC[C@]43C)[C@H]12` [URSOLIC ACID], the IC50 was 2.2 µM in assay [1] and 13.1 µM in the assay with J774. Also, the Activity in the assay on Trypanosoma cruzi [8] and with Trypanosoma cruzi [9] was 50% each time. The “Ratio IC50” value in assay [2] was 6.
For the compound `C=C(C)[C@@H]1CC[C@]2(C(=O)O)CC[C@]3(C)[C@H](CC[C@@H]4[C@@]5(C)CC[C@H](O)C(C)(C)[C@@H]5CC[C@]43C)[C@@H]12` [BETULINIC ACID], the IC50 in assay [1] came out at 32.6 µM; in the assay with J774 it was 44 µM. For the same compound, the “Ratio IC50” value in assay [2] was 1.3.
As for `CC[C@H](CC[C@@H](C)[C@H]1CC[C@H]2[C@@H]3CC[C@H]4C[C@@H](O)CC[C@]4(C)[C@H]3CC[C@]12C)C(C)C` [STIGMASTANOL], the IC50 (in [1]; in the assay on J774) was greater than 240 µM throughout.

For the origin of these results see ChEMBL document CHEMBL1141252, “Antitrypanosomal activity of triterpenoids and sterols from the leaves of Strychnos spinosa and related compounds” (J Nat Prod, 2007).
